This is an account of results in paper PMC11470957, “Principles of paralog-specific targeted protein degradation engaging the C-degron E3 KLHDC2” (Nature Communications, 2024).

The assay deals with T1, KLHDC2^SBD (Homo sapiens, UniProt Q9Y2U9).
T1 sequence (Q9Y2U9 15-361): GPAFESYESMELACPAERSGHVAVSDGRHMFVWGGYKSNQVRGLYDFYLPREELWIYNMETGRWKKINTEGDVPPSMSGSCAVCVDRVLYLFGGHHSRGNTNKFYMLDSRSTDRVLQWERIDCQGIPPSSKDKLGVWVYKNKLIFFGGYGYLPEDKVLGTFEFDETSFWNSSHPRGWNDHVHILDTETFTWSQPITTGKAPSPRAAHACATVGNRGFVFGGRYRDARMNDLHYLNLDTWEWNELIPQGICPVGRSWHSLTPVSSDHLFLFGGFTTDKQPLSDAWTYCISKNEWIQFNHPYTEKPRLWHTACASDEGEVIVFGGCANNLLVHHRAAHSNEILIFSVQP
Kind of assay: Thermal shift assay (Sypro Orange) probing stabilization of KLHDC2^SBD. Also on record: KLHDC2^SBD (15-361) and its Avi-tagged counterpart were expressed in E. coli Rosetta2 cells; 6XHis-MBP (N, cleaved yes); made in house; host or cells: E. coli Rosetta2. The following applies: for ΔTm at 50 µM: read-out: ΔTm at 50 µM; for Thermal shift ΔTm: KLHDC2^SBD, ligand concentration not given. It counts as binding. As for the experimental part:
In an attempt to identify non-peptide ligands that target KLHDC2’s substrate binding domain (SBD), we developed a thermal shift assay probing for stabilization of KLHDC2^SBD upon ligand addition. […] We utilized the thermal shift assay to screen ~ 9,000 molecules from a diverse collection of lead-like molecules (Figs. 1b, S1a, Supplementary Table 1).
Experimental compounds (200 nl each) were dispensed into a 384-well PCR plate using the Labcyte ECHO 655 T. The assay solution, comprising 0.5 μM KLHDC2, 25 mM HEPES, 200 mM NaCl, and 5% Sypro Orange at pH 7.5, was added to achieve a final volume of 20 μl. Negative control wells contained only DMSO, while positive control wells contained a di-Gly substrate peptide derived from SELK. Fluorescence measurements of Sypro Orange in each sample were taken using a Quantstudio 5 or Quantstudio 6, with temperatures ranging from 23 to 75 °C at a rate of 0.05 °C/s. Data analysis involved calculating thermal stability using the Boltzmann and first derivative minima equations in Thermo Scientific Protein Thermal Shift software v1.4. The resulting data were uploaded to CDD Vault for further analysis.
The 8892-compound lead-like one library was screened for its ability to stabilize KLHDC2 using a sypro orange-based thermal stability single-point assay.
Supplementary Ta b l e 1. Small molecule screening data
Category Parameter Description
Assay Ty p e o f assay Thermal Stability Screen
Primary measurement RFU of Sypro Orange
Key reagents Sypro Orange
Assay protocol Experimental compounds (200nl each) were dispensed into […]
a 384-well PCR plate using the Labcyte ECHO 655T. The […]
assay solution, comprising 0.5µM KLHDC2, 25mM HEPES,
200mM NaCl, and 5% Sypro Orange at pH 7.5, was added […]
to achieve a final volume of 20μl. Negative control wells […]
contained only DMSO, while positive control wells […]
contained peptide sub2. Fluorescence measurements of
Sypro Orange in each sample were taken using a
Quantstudio 5 or Quantstudio 6, with temperatures ranging […]
from 23 to 75°C at a rate of 0.05°C/second. Data analysis […]
involved calculating thermal stability using the Boltzmann […]
and first derivative minima equations in Thermo Scientific
Protein Thermal Shift software v1.4. The resulting data […]
were uploaded to CDD Vault for further analysis.
Library Library size 10041
Library composition The library was curated from compounds cherry picked […]
from St. Jude’s collection, representative of 80% of the […]
entire collection based on scaffold diversity (2D Molecular […]
fingerprinting based clustering) and structural properties: […]
lipophilicity (cLogP<3), size (MW 200-300 Da), and no […]
structural alerts (PAINS).
Source The compound collection was curated from multiple […]
vendors and stored on-site.
Screen Format The assay was completed in 26 384 well plates
Concentration(s) tested Compounds were tested at 100µM, and then a 16-point […]
serial dilution was performed on select compounds.
Plate controls DMSO as negative control and peptide sub2 as positive […]
Reagent/ compound dispensing system Multidrop Combi and Labcyte ECHO 655T […]
Detection instrument and software Quant Studio 5 and Quant Studio 6 and Thermo Scientific […]
Protein Thermal Shift software v1.4
Correction factors No correction factors were applied.

Each structure is given as a SMILES string.

Consider `O=C(O)CNC(=O)Cc1csc(-c2ccccc2F)n1` [SJ6145], for which the thermal shift (ΔTm) at 50 µM is 1.1 ± 0.03 °C. For `COCOc1ccc(-c2nc(CC(=O)NCC(=O)O)cs2)c(Cl)c1` [SJ10278], the thermal shift (ΔTm) at 50 µM is 3.5 ± 0.3 °C. Turning to `O=C(O)CNC(=O)Cc1csc(-c2ccc3ccccc3c2)n1` [SJ46411], the “Thermal shift ΔTm” value came out at 6.0 °C.

For `COCCOc1cccc2ccc(-c3nc(CC(=O)NCC(=O)O)cs3)cc12` [SJ46418], the “Thermal shift ΔTm” value worked out at 4.3 °C.
